According to PubChem BioAssay AID1963427 (Molecular Pharmacology Branch, DTP, NCI, 2024):

Test system: 317291-083-R-J1-PDC complex spheroid growth
Experiment: Anticancer human tumor 317291-083-R-J1-PDC patient-derived soft tissue sarcoma cell line growth inhibition [Asc]
Conditions: for IC50: curve of first compound; for viability, T/C: stronger effect = lower value
In short: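 Tumor cells were grown as multicellular spheroids with stromal HUVEC and mesenchymal stem cells and treated singly or in combination. Concentrations fell in half-log steps from the clinical Cmax, or from 10 microM where none was known.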

[1] = second compound 0.0316 µM, first compound 0.0316 µM
[2] = second compound 0.0316 µM, first compound 0.1 µM
[3] = second compound 0.0316 µM, first compound 0.316 µM
[4] = second compound 0.0316 µM, first compound 1 µM
[5] = second compound 0.0316 µM, first compound 3.16 µM
[6] = second compound 0.0316 µM, first compound 10 µM
[7] = second compound 0.1 µM, first compound 0.0316 µM
[8] = second compound 0.1 µM, first compound 0.1 µM
[9] = second compound 0.1 µM, first compound 0.316 µM
[10] = second compound 0.1 µM, first compound 1 µM
[11] = second compound 0.1 µM, first compound 3.16 µM
[12] = second compound 0.1 µM, first compound 10 µM
[13] = second compound 0.316 µM, first compound 0.0316 µM
[14] = second compound 0.316 µM, first compound 0.1 µM
[15] = second compound 0.316 µM, first compound 0.316 µM
[16] = second compound 0.316 µM, first compound 1 µM
[17] = second compound 0.316 µM, first compound 3.16 µM
[18] = second compound 0.316 µM, first compound 10 µM
[19] = second compound 1 µM, first compound 0.0316 µM
[20] = second compound 1 µM, first compound 0.1 µM
[21] = second compound 1 µM, first compound 0.316 µM
[22] = second compound 1 µM, first compound 1 µM
[23] = second compound 1 µM, first compound 3.16 µM
[24] = second compound 1 µM, first compound 10 µM
[25] = second compound 3.16 µM, first compound 0.0316 µM
[26] = second compound 3.16 µM, first compound 0.1 µM
[27] = second compound 3.16 µM, first compound 0.316 µM
[28] = second compound 3.16 µM, first compound 1 µM
[29] = second compound 3.16 µM, first compound 3.16 µM
[30] = second compound 3.16 µM, first compound 10 µM
[31] = second compound 10 µM, first compound 0.0316 µM
[32] = second compound 10 µM, first compound 0.1 µM
[33] = second compound 10 µM, first compound 0.316 µM
[34] = second compound 10 µM, first compound 1 µM
[35] = second compound 10 µM, first compound 3.16 µM
[36] = second compound 10 µM, first compound 10 µM
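Note: compound exposure lasted seven days after spheroids formed for three days.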
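Throughout, for viability, T/C: 100% = DMSO vehicle control wells.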

C=C(F)C(=O)N1CCN(c2nc(OCC3CCCN3C)nc3c2CCN(c2cccc4cccc(Cl)c24)C3)CC1CC#N (stereo unspecified) + Cc1c(S(C)(=O)=O)c(-c2cc(F)cc(N3CCN(c4ccc(NS(=O)(=O)c5ccc(NC(CCN6CCC(C(=O)OCCCP(=O)(O)O)CC6)CSc6ccccc6)c(S(=O)(=O)C(F)(F)F)c5)cc4)CC3)c2)c(-c2ccc(Cl)cc2)n1C(C)C
IC50 (second compound 0.0316 µM): 1.92 µM
IC50 (second compound 0.1 µM): 1.97 µM
IC50 (second compound 0.316 µM): 1.72 µM
IC50 (second compound 1 µM): 1.62 µM
IC50 (second compound 3.16 µM): 1.17 µM
IC50 (second compound 10 µM): 1.59 µM
viability, T/C [1]: 105%
viability, T/C [2]: 105%
viability, T/C [3]: 85.2%
viability, T/C [4]: 83.2%
viability, T/C [5]: 25.8%
viability, T/C [6]: 0.54%
viability, T/C [7]: 113%
viability, T/C [8]: 97%
viability, T/C [9]: 86.2%
viability, T/C [10]: 96.7%
viability, T/C [11]: 17.6%
viability, T/C [12]: 0.18%
viability, T/C [13]: 80.8%
viability, T/C [14]: 90%
viability, T/C [15]: 77.5%
viability, T/C [16]: 87.1%
viability, T/C [17]: 11.7%
viability, T/C [18]: 0.14%
viability, T/C [19]: 87.5%
viability, T/C [20]: 72.9%
viability, T/C [21]: 76.8%
viability, T/C [22]: 76.3%
viability, T/C [23]: 13.7%
viability, T/C [24]: 2.51%
viability, T/C [25]: 100%
viability, T/C [26]: 69.9%
viability, T/C [27]: 74.5%
viability, T/C [28]: 58.6%
viability, T/C [29]: 7.37%
viability, T/C [30]: 0.24%
viability, T/C [31]: 96.5%
viability, T/C [32]: 99.1%
viability, T/C [33]: 96.7%
viability, T/C [34]: 77.9%
viability, T/C [35]: 8.59%
viability, T/C [36]: 0.29%

C=CC(=O)N1CCN(c2nc(=O)n(-c3c(C)ccnc3C(C)C)c3nc(-c4c(O)cccc4F)c(F)cc23)C(C)C1 (stereo unspecified) + Cc1c(S(C)(=O)=O)c(-c2cc(F)cc(N3CCN(c4ccc(NS(=O)(=O)c5ccc(NC(CCN6CCC(C(=O)OCCCP(=O)(O)O)CC6)CSc6ccccc6)c(S(=O)(=O)C(F)(F)F)c5)cc4)CC3)c2)c(-c2ccc(Cl)cc2)n1C(C)C
IC50 (second compound 0.0316 µM): > 10 µM
IC50 (second compound 0.1 µM): > 10 µM
IC50 (second compound 0.316 µM): > 10 µM
IC50 (second compound 1 µM): > 10 µM
IC50 (second compound 3.16 µM): 8.05 µM
IC50 (second compound 10 µM): 9.46 µM
viability, T/C [1]: 108%
viability, T/C [2]: 86.8%
viability, T/C [3]: 108%
viability, T/C [4]: 98.3%
viability, T/C [5]: 98.3%
viability, T/C [6]: 66.1%
viability, T/C [7]: 84.4%
viability, T/C [8]: 97.7%
viability, T/C [9]: 86.1%
viability, T/C [10]: 86.5%
viability, T/C [11]: 100%
viability, T/C [12]: 60.1%
viability, T/C [13]: 91%
viability, T/C [14]: 102%
viability, T/C [15]: 85.3%
viability, T/C [16]: 90.6%
viability, T/C [17]: 83.9%
viability, T/C [18]: 59.7%
viability, T/C [19]: 81.5%
viability, T/C [20]: 84.3%
viability, T/C [21]: 96.2%
viability, T/C [22]: 80.2%
viability, T/C [23]: 81.7%
viability, T/C [24]: 51.7%
viability, T/C [25]: 82.4%
viability, T/C [26]: 70.7%
viability, T/C [27]: 87.8%
viability, T/C [28]: 74.7%
viability, T/C [29]: 79.5%
viability, T/C [30]: 43.2%
viability, T/C [31]: 87.1%
viability, T/C [32]: 90.6%
viability, T/C [33]: 93.2%
viability, T/C [34]: 88.6%
viability, T/C [35]: 96.6%
viability, T/C [36]: 47.9%

CCN1C(C(=O)NC23CCC(C(=O)O)(CC2)CC3)C(c2cccc(Cl)c2F)C2(C(=O)Nc3cc(Cl)ccc32)C12CCCCC2 (stereo unspecified) + Cc1c(S(C)(=O)=O)c(-c2cc(F)cc(N3CCN(c4ccc(NS(=O)(=O)c5ccc(NC(CCN6CCC(C(=O)OCCCP(=O)(O)O)CC6)CSc6ccccc6)c(S(=O)(=O)C(F)(F)F)c5)cc4)CC3)c2)c(-c2ccc(Cl)cc2)n1C(C)C
IC50 (second compound 0.0316 µM): > 3 µM
IC50 (second compound 0.1 µM): > 3 µM
IC50 (second compound 0.316 µM): > 3 µM
IC50 (second compound 1 µM): > 3 µM
IC50 (second compound 3.16 µM): > 3 µM
IC50 (second compound 10 µM): > 3 µM
viability, T/C (second compound 0.0316 µM, first compound 0.00949 µM): 108%
viability, T/C (second compound 0.0316 µM, first compound 0.03 µM): 122%
viability, T/C (second compound 0.0316 µM, first compound 0.0949 µM): 99.7%
viability, T/C (second compound 0.0316 µM, first compound 0.3 µM): 95.1%
viability, T/C (second compound 0.0316 µM, first compound 0.949 µM): 83.6%
viability, T/C (second compound 0.0316 µM, first compound 3 µM): 80.5%
viability, T/C (second compound 0.1 µM, first compound 0.00949 µM): 110%
viability, T/C (second compound 0.1 µM, first compound 0.03 µM): 90.2%
viability, T/C (second compound 0.1 µM, first compound 0.0949 µM): 89.5%
viability, T/C (second compound 0.1 µM, first compound 0.3 µM): 98.2%
viability, T/C (second compound 0.1 µM, first compound 0.949 µM): 108%
viability, T/C (second compound 0.1 µM, first compound 3 µM): 73.4%
viability, T/C (second compound 0.316 µM, first compound 0.00949 µM): 80.9%
viability, T/C (second compound 0.316 µM, first compound 0.03 µM): 90.8%
viability, T/C (second compound 0.316 µM, first compound 0.0949 µM): 90.3%
viability, T/C (second compound 0.316 µM, first compound 0.3 µM): 98.4%
viability, T/C (second compound 0.316 µM, first compound 0.949 µM): 91.5%
viability, T/C (second compound 0.316 µM, first compound 3 µM): 67.6%
viability, T/C (second compound 1 µM, first compound 0.00949 µM): 92.2%
viability, T/C (second compound 1 µM, first compound 0.03 µM): 90.3%
viability, T/C (second compound 1 µM, first compound 0.0949 µM): 68.9%
viability, T/C (second compound 1 µM, first compound 0.3 µM): 90.2%
viability, T/C (second compound 1 µM, first compound 0.949 µM): 89.7%
viability, T/C (second compound 1 µM, first compound 3 µM): 58%
viability, T/C (second compound 3.16 µM, first compound 0.00949 µM): 83.9%
viability, T/C (second compound 3.16 µM, first compound 0.03 µM): 84.1%
viability, T/C (second compound 3.16 µM, first compound 0.0949 µM): 68.6%
viability, T/C (second compound 3.16 µM, first compound 0.3 µM): 82.1%
viability, T/C (second compound 3.16 µM, first compound 0.949 µM): 85.9%
viability, T/C (second compound 3.16 µM, first compound 3 µM): 63.1%
viability, T/C (second compound 10 µM, first compound 0.00949 µM): 99.3%
viability, T/C (second compound 10 µM, first compound 0.03 µM): 102%
viability, T/C (second compound 10 µM, first compound 0.0949 µM): 90.8%
viability, T/C (second compound 10 µM, first compound 0.3 µM): 85.4%
viability, T/C (second compound 10 µM, first compound 0.949 µM): 94.8%
viability, T/C (second compound 10 µM, first compound 3 µM): 75.8%
